Where two headings read alike, the source gives them in different places.
How the values were obtained:
[1] = Effect of phloretin on distribution of Rb1 in plasma and brain of normal rats; assay type: in vivo, rat; settings: Rb1 10 mg/kg i.v.; for concentration at 0.5 h / concentration at 2 h / concentration at 6 h: rat
Procedure: Rats were randomly divided into two groups in 36 of each group. One group served as the control and another group were treated with phloretin. Dose of phloretin was set to be 5 mg/kg. Rb1 (10 mg/kg, i.v.) was administered to the experimental rats after i.v. administration of phloretin or saline for consecutive 1 week. Six rats from each group were selected and the blood samples were collected into heparinized Eppendorf tubes via the abdominal aorta at 0.5, 2, and 6 h after Rb1 administration. Then, brain samples were immediately collected. The plasma samples were obtained by centrifuging at 1000 × g for 10 min. Plasma and brain samples were frozen at -80°C until analysis.
(§1) HPLC–MS/MS was composed by a Shimadzu LC-20A chromatographic system and an API 4000 mass spectrometer equipped with electrospray ionization (ESI) source system. MS/MS detection was performed on an API 4000 mass spectrometer using multiple reaction monitoring (MRM) mode by monitoring the fragmentation of m/z 1107.6 → 179.0 for Rb1 and m/z 779.4 → 345.2 for digoxin (IS). Chromatographic separations were carried out on a Shim-pack XD-ODS column (2.0 mm × 30 mm, 2.2 μm) with a Shim-pack GVD-ODS (2.0 mm × 5 mm, 4.6 μm) guard column (Shimadzu, Japan) at a flow rate of 0.28 mL/min using 10 mM acetic acid in water (phase A) and methanol (phase B) as mobile phase. A linear step gradient elution was performed as followed: phase B was increased from 45 to 90% within the first 3 min, and decreased to 45% within the next 3 min (total gradient time: 6 min). A 10 μL sample was injected into the system with the auto-sample conditioned at 4°C and column temperature maintained at 40°C.
The biological samples (100 μL) were placed in a 1.5 mL Eppendorf tube, and mixed with 10 μL IS solution (500 ng/mL) for 3 min by vortexing. The mixture was extracted with methanol (0.9 mL) by vortexing, and then centrifuged at 14,000 rpm for 5 min. The supernatant (0.8 mL) was transferred to a new 1.5 mL Eppendorf tube and evaporated to dryness under vacuum. The dried residue was reconstituted with 100 μL methanol, vortex-mixed for 30 s, and centrifuged at 14,000 rpm for 5 min. Finally, 10 μL of the supernatant liquid was immediately subjected to HPLC–MS/MS analysis. The system control and data analysis were performed by AB Sciex Analyst software (the software version: Analyst 1.5.1). Retention time for Rb1 was tR = 3.80 ± 0.01 min and for IS digoxin tR = 3.13 ± 0.01 min. The lowest limits of quantitation of Rb1 in cell lysate, plasma, and brain homogenate were 1, 2.5, and 1 ng/mL, respectively. The recoveries were higher than 90%; the relative standard deviations (SD) of intra-day and inter-day were lower than 10%.

[2] = tested on: rBMEC (primary cultured rat brain microvascular endothelial cells); assay: Uptake of Rb1 by primary cultured rBMEC (time course, temperature, concentration dependence, Michaelis-Menten kinetics); assay type: in vitro ADME
Procedure: Isolation and culture of rat brain microvessel endothelial cells were operated according to previous studies with some modifications ([Liu et al., 2013]). The isolated rBMEC was seeded in cultured flasks coated with 2% gelatin and cultured in culture medium. The culture medium consisted of DMEM/F12 supplemented with 20% FBS, 2 mM L-glutamine, heparin (50 mg/L), 100 IU/mL penicillin, 100 μg/mL streptomycin, and NaHCO3 (0.5 g/L). On the first day after seeding, the culture medium was replaced, after which the culture medium was replaced every 2 days. At 5–6 days, the rBMEC was transferred to 6-well plates coated with gelatin and cultured in an incubator with a saturated humidity at 37°C in 5% CO2 and 95% air. Transport studies were performed when cells reached 100% confluency. The endothelial phenotype of the rBMEC was identified by staining for the endothelial cell marker vWF using a confocal laser scanning microscope (Leica TCS SP8).
When rBMEC was grown to 100% confluency in gelatin-coated 6-well plates, uptake experiments were performed. Briefly, the cultured cell monolayer was washed three times with 1 mL of pH 7.4 Hanks’ balanced salt solution (HBSS). The cultured rBMEC was pre-incubated for 30 min in 1 mL HBSS at 37 or 4°C. After pre-incubation, the HBSS solution was removed by suction, and HBSS (1 mL) containing 60 μg/mL Rb1 was added to initiate uptake. Then the cells were incubated at 37 or 4°C at a set time (5, 10, 15, 30, 60, 120, and 240 min). After the end of the incubation, the incubation solution was aspirated and the monolayers were carefully washed three times with 1 mL ice-cold HBSS to terminate the uptake. Then, 0.5 mL ultrapure water was added to each incubated well, and the material in the wells was frozen (at -80°C)/thawed (at room temperature) repeatedly four times to lyse cells. After the solubilized, the monolayer supernatants were collected and 10 μL was injected into LC–MS/MS to determine Rb1 concentration. The protein contents of the cell monolayers were measured by the method of Bradford using BSA as the standard ([Bradford, 1976]). Uptake was expressed as the cell-to-medium ratio (μL/mg protein or μL/mg protein/min) and termed the volume of distribution (Vd), obtained by dividing the uptake amount by the concentration of substrate in the transport medium. Vd is derived from the ratio of ng/mg protein to ng/μL buffer.
The uptake data were fitted to the above equation by nonlinear least-squares regression analysis with Graphpad Prism 5.0 software.
as §1
The biological samples (100 μL) were placed in a 1.5 mL Eppendorf tube, and mixed with 10 μL IS solution (500 ng/mL) for 3 min by vortexing. The mixture was extracted with methanol (0.9 mL) by vortexing, and then centrifuged at 14,000 rpm for 5 min. The supernatant (0.8 mL) was transferred to a new 1.5 mL Eppendorf tube and evaporated to dryness under vacuum. The dried residue was reconstituted with 100 μL methanol, vortex-mixed for 30 s, and centrifuged at 14,000 rpm for 5 min. […]

[3] = set-up: method as in Li et al., 2007; settings: rats, TPNS injection 10.0 mg/kg intravenous; ref Li et al., 2007; cited from earlier work
[4] = 7.5-960 μg/mL Rb1, 37°C, 120 min, Michaelis-Menten fit

## CC(C)=CCC[C@](C)(O[C@@H]1O[C@H](CO[C@@H]2O[C@H](CO)[C@@H](O)[C@H](O)[C@H]2O)[C@@H](O)[C@H](O)[C@H]1O)[C@H]1CC[C@]2(C)[C@@H]1[C@H](O)C[C@@H]1[C@@]3(C)CC[C@H](O[C@@H]4O[C@H](CO)[C@@H](O)[C@H](O)[C@H]4O[C@@H]4O[C@H](CO)[C@@H](O)[C@H](O)[C@H]4O)C(C)(C)[C@@H]3CC[C@]12C [Rb1, Ginsenoside Rb1]
[1]; 0.5 h, phloretin-treated (5 mg/kg i.v., 1 week)
  Brain-to-plasma concentration ratio (Kp): 2.15 ± 0.19 μL/g brain
[1]; 0.5 h, untreated normal rats
  Brain-to-plasma concentration ratio (Kp): 7.09 ± 1.01 μL/g brain
[1]; 2 h, phloretin-treated (5 mg/kg i.v., 1 week)
  Brain-to-plasma concentration ratio (Kp): 2.56 ± 0.06 μL/g brain
[1]; 2 h, untreated normal rats
  Brain-to-plasma concentration ratio (Kp): 4.9 ± 0.35 μL/g brain
[1]; 6 h, phloretin-treated (5 mg/kg i.v., 1 week)
  Brain-to-plasma concentration ratio (Kp): 1.59 ± 0.005 μL/g brain
[1]; 6 h, untreated normal rats
  Brain-to-plasma concentration ratio (Kp): 3.24 ± 0.53 μL/g brain
[1]; brain, intravenous, 0.5 h, phloretin-treated (5 mg/kg i.v., 1 week), read-out: Brain concentration
  concentration at 0.5 h: 105 ± 15.1 ng/g
[1]; brain, intravenous, 2 h, phloretin-treated (5 mg/kg i.v., 1 week), read-out: Brain concentration
  concentration at 2 h: 84.8 ± 4.1 ng/g
[1]; brain, intravenous, 6 h, phloretin-treated (5 mg/kg i.v., 1 week), read-out: Brain concentration
  concentration at 6 h: 39.9 ± 4.9 ng/g
[1]; brain, iv, 0.5 h, untreated normal rats, read-out: Brain concentration
  concentration at 0.5 h: 490 ± 58.3 ng/g
[1]; brain, iv, 2 h, untreated normal rats, read-out: Brain concentration
  concentration at 2 h: 194 ± 11.1 ng/g
[1]; brain, iv, 6 h, untreated normal rats, read-out: Brain concentration
  concentration at 6 h: 114 ± 24 ng/g
[1]; plasma, intravenous, 0.5 h, phloretin-treated (5 mg/kg i.v., 1 week), read-out: Plasma concentration
  concentration at 0.5 h: 48700 ± 2900 ng/mL
[1]; plasma, intravenous, 2 h, phloretin-treated (5 mg/kg i.v., 1 week), read-out: Plasma concentration
  concentration at 2 h: 33200 ± 1400 ng/mL
[1]; plasma, intravenous, 6 h, phloretin-treated (5 mg/kg i.v., 1 week), read-out: Plasma concentration
  concentration at 6 h: 27000 ± 1500 ng/mL
[1]; plasma, iv, 0.5 h, untreated normal rats, read-out: Plasma concentration
  concentration at 0.5 h: 69300 ± 4500 ng/mL
[1]; plasma, iv, 2 h, untreated normal rats, read-out: Plasma concentration
  concentration at 2 h: 39700 ± 4100 ng/mL
[1]; plasma, iv, 6 h, untreated normal rats, read-out: Plasma concentration
  concentration at 6 h: 35200 ± 3000 ng/mL
[2]; 60 μg/mL Rb1
  intracellular amounts of Rb1 at 37°C relative to 4°C: about two to threefold
[2]; 60 μg/mL Rb1, 37°C
  time at which steady-state uptake occurred: 120 min
[2]; [4]
  Km: 119 ± 15.6 µM
  Vmax of Rb1 uptake: 0.0034 ± 0.0003 nmol/(mg protein ⋅ min)
[2]; 37°C
  nonsaturable component (Pdiff) of Rb1 transport: 0.0023 μL/(mg protein ⋅ min)
[2]; low concentration range
  share of total Rb1 uptake accounted for by the saturable component: 90%
[3]
  duration in brain tissue: ~24 h
  largest content in brain tissue: about 1.4 μg/g

From article PMC5917093, “Brain Transport Profiles of Ginsenoside Rb1 by Glucose Transporter 1: In Vitro and in Vivo” (Frontiers in Pharmacology, 2018)
